In assay [1] the target is T1, GST-tagged Tankyrase-1 (1023-1327 aa) (Homo sapiens, UniProt O95271).
T1 construct: GST-tagged Tankyrase-1 (1023-1327 aa)
The assay can be described thus: Tankyrase 1 autoparsylation assay (HTRF enzyme assay). In kind it is biochemical. In short, it runs like this: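 ~250 nM GST-tagged enzyme with 5 μM biotin-NAD in HEPES/Mg/DTT buffer pH 7.7, 10 compound concentrations, 90 min at 30 °C; EDTA stop. Eu-anti-GST/streptavidin-Xlent HTRF read (665/615 ratio) after 1 h RT. IC50 relative to inhibitor-free reaction and 5 μM XAV-939 as zero.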
Background: TR-FRET usually uses a lanthanide donor and a delayed reading to cut background.

The test system of the next assay is tankyrase 1/2. The assay can be described thus: Cellular inhibition of Tankyrase: increase of Axin2 level in DLD1 cells (Luminex). Particulars: 24 hours, read-out: EC50 tankyrase 1/2 (cell assay). In kind it is cell-based. In short, it runs like this: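 DLD1 colon carcinoma cells treated 24 h with seven-step serial dilutions in triplicate (0.3% DMSO final). Axin2 in cleared lysates captured on anti-Axin2 beads, detected with polyclonal anti-Axin2 plus PE secondary, and quantified by Luminex. EC50 from data normalized to solvent control; IWR-2 (3E-06 M) marks maximal Axin2 increase.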

For another assay, the target named is T2, His-tagged Parp-1 (Homo sapiens, UniProt P09874).
T2 construct: purchased Enzo Life Sciences GmbH
Put plainly: PARP-1 autoparsylation assay (HTRF). It counts as biochemical. Conditions: PARP-1 autoparsylation HTRF assay. The source says:
Description of the PARP1 Assay
Biochemical Activity Testing of PARP-1: Autoparsylation Assay
The autoparsylation assay is run in two steps: the enzymatic reaction in which
His-tagged Parp-1 transfers biotinylated ADP-ribose/ADP-ribose to itself from biotinylated NAD/NAD as co-substrate and the detection reaction where a time resolved FRET between cryptate labelled anti-His antibody bound to the His tag of the enzyme and Xlent® labelled-streptavidin bound the biotin-parsylation residue is analysed. The autoparsylation activity is detectable directly via the increase in HTRF signal.
The autoparsylation assay is performed as 384-well HTRF® (Cisbio, Codolet, France) assay format in Greiner low volume nb 384-well microtiter plates. 35 nM His-tagged Parp-1 (human, recombinant, Enzo Life Sciences GmbH, Lörrach, Germany) and a mixture of 125 nM bio-NAD (Biolog, Life science Inst., Bremen, Germany) and 800 nM NAD as co-substrate are incubated in a total volume of 6 μl (100 mM Tris/HCl, 4 mM Mg-chloride, 0.01% IGEPAL® CA630, 1 mM DTT, 0.5% DMSO, pH 8, 13 ng/μl activated DNA (BPS Bioscience, San Diego, US)) in the absence or presence of the test compound (10 dilution concentrations) for 150 min at 23° C. The reaction is stopped by the addition of 4 μl of the Stop/detection solution (70 nM SA-Xlent® (Cisbio, Codolet, France), 2.5 nM Anti-His-K® (Eu-labelled anti-His, Cisbio, Codolet, France) in 50 mM HEPES, 400 mM KF, 0.1% BSA, 20 mM EDTA, pH 7.0). After 1 h incubation at room temperature the HTRF is measured with an Envision multimode reader (Perkin Elmer LAS Germany GmbH) at excitation wavelength 340 nm (laser mode) and emission wavelengths 615 nm and 665 nm. The ratio of the emission signals is determined. The full value used is the inhibitor-free reaction. The pharmacological zero value used is Olaparib (LClabs, Woburn, US) in a final concentration of 1 μM. The inhibitory values (IC50) are determined using either the program Symyx Assay Explorer® or Condosseo® from GeneData.

pEC50, pIC50: −log10 of the molar value. A value given as a limit tells only on which side of the number the result lay.

T2 sequence (P09874 whole entry): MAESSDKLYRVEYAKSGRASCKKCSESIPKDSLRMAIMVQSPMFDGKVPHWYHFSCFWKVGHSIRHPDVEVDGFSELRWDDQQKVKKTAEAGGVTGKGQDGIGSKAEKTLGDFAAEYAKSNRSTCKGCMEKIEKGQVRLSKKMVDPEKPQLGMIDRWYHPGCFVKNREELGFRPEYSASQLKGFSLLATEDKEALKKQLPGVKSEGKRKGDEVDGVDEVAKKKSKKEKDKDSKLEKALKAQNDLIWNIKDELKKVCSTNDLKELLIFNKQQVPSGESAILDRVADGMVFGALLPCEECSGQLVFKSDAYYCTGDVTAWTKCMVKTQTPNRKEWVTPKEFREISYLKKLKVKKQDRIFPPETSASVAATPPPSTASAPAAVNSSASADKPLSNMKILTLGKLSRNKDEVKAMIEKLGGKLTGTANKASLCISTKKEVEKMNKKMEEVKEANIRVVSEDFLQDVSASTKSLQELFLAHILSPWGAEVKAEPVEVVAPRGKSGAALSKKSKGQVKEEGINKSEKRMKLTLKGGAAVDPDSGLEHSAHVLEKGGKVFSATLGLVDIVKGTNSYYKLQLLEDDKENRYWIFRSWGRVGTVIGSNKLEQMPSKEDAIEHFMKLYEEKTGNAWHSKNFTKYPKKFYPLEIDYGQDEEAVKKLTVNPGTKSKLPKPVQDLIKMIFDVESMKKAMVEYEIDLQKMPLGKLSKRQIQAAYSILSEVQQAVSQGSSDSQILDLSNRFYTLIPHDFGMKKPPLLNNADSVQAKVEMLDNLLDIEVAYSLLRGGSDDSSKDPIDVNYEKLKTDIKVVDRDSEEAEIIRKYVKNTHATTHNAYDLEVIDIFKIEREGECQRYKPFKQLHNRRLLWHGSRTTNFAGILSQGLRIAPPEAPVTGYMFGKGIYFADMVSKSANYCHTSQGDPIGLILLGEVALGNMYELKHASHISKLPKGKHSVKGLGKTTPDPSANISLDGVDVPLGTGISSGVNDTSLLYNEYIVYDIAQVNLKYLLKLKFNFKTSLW
T1 sequence (O95271 1023-1327): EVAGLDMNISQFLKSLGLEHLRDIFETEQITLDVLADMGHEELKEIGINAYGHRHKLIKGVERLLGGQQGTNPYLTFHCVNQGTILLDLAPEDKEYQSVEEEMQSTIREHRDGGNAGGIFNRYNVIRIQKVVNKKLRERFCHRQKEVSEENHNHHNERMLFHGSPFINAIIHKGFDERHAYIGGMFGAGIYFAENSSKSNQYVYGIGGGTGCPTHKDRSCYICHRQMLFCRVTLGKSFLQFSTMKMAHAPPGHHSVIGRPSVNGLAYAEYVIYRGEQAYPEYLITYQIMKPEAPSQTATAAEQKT

As to `CCC(O)(CC)c1ccc(-c2cn3cc(F)cc3c(=O)[nH]2)cc1` [Compound A61, 3-[4-(1-ethyl-1-hydroxy-propyl)-phenyl]-7-fluoro-2H-pyrrolo[1,2-a]pyrazin-1-one], the pIC50 is over 6.52 in assay [1] and 5.52 to 6.52 against His-tagged Parp-1. The pEC50 with tankyrase 1/2 was over 6.52.

Consider `Cc1ccc(-c2cn3cccc3c(=O)[nH]2)cc1` [Compound A12, 3-p-tolyl-2H-pyrrolo[1,2-a]pyrazin-1-one], for which the pIC50 in assay [1] is over 6.52; at His-tagged Parp-1 it was 5.52 to 6.52. For the same compound, the pEC50 in the assay with tankyrase 1/2 was 5.52 to 6.52.

`CC(C)(O)c1ccc(-c2cn3cccc3c(=O)[nH]2)cc1` [Compound A29, 3-[4-(1-hydroxy-1-methyl-ethyl)-phenyl]-2H-pyrrolo[1,2-a]pyrazin-1-one]: the pIC50 in assay [1] was over 6.52; at His-tagged Parp-1 it was 5.52 to 6.52. In addition, in the assay with tankyrase 1/2, the pEC50 was over 6.52.

In the case of `O=c1[nH]c(-c2ccc(C3(O)CCC3)cc2)cn2cccc12` [Compound A111], the pIC50 is over 6.52 in assay [1] and 5.52 to 6.52 on His-tagged Parp-1. Besides, the pEC50 with tankyrase 1/2 is over 6.52.

For the compound `CN1CCC(c2ccc(-c3cn4cccc4c(=O)[nH]3)cc2)C1` (stereo not drawn) [Compound A80, 3-[4-(1-methyl-pyrrolidin-3-yl)-phenyl]-2H-pyrrolo[1,2-a]pyrazin-1-one], the pIC50 in assay [1] is 5.52 to 6.52; against His-tagged Parp-1 it was 4.30 to 5.52. Further, the pEC50 in the assay with tankyrase 1/2 is 4.30 to 5.52.

In the case of `COCCOC(C)(C)c1ccc(-c2cn3cc(F)cc3c(=O)[nH]2)cc1` [Compound A71, 7-fluoro-3-{4-[1-(2-methoxy-ethoxy)-1-methyl-ethyl]-phenyl}-2H-pyrrolo[1,2-a]pyrazin-1-one], the pIC50 in assay [1] is over 6.52; against His-tagged Parp-1, 4.30 to 5.52. The pEC50 with tankyrase 1/2 is 5.52 to 6.52.

Take `CC(C)(O)c1ccc(-c2cn3cc(Cl)cc3c(=O)[nH]2)cc1` [Compound A60, 7-chloro-3-[4-(1-hydroxy-1-methyl-ethyl)-phenyl]-2H-pyrrolo[1,2-a]pyrazin-1-one]: the pIC50 in assay [1] is over 6.52; against His-tagged Parp-1, 5.52 to 6.52. For the same compound, the pEC50 with tankyrase 1/2 is over 6.52.

As to `Cc1cc2c(=O)[nH]c(-c3ccc(C(C)(C)O)cc3)cn2n1` [Compound A46, 6-[4-(1-hydroxy-1-methyl-ethyl)phenyl]-2-methyl-5H-pyrazolo[1,5-a]pyrazin-4-one], the pIC50 in assay [1] was over 6.52; against His-tagged Parp-1, 5.52 to 6.52. Also, in the assay on tankyrase 1/2, the pEC50 is 5.52 to 6.52.

With `CC(C)(O)c1ccc(-c2cn3cc(F)cc3c(=O)[nH]2)cc1` [Compound A59, 7-fluoro-3-[4-(1-hydroxy-1-methyl-ethyl)-phenyl]-2H-pyrrolo[1,2-a]pyrazin-1-one], the figures for the pIC50 (in assay [1]; at His-tagged Parp-1) were over 6.52 and 5.52 to 6.52, respectively. For the same compound, in the assay on tankyrase 1/2, the pEC50 is over 6.52.

Take `O=c1[nH]c(-c2ccc(C3CCNC3)cc2)cn2cccc12` (stereo not drawn) [Compound A76, 3-(4-Pyrrolidin-3-yl-phenyl)-2H-pyrrolo[1,2-a]pyrazin-1-one]: the results for the pIC50 (in assay [1]; against His-tagged Parp-1) were over 6.52 and 5.52 to 6.52, respectively. For the same compound, in the assay with tankyrase 1/2, the pEC50 was 5.52 to 6.52.

Consider `CC(C)(OCCO)c1ccc(-c2cn3cc(F)cc3c(=O)[nH]2)cc1` [Compound A70, 7-fluoro-3-{4-[1-(2-hydroxy-ethoxy)-1-methyl-ethyl]-phenyl}-2H-pyrrolo[1,2-a]pyrazin-1-one], for which the pIC50 is over 6.52 in assay [1] and 5.52 to 6.52 against His-tagged Parp-1. The pEC50 in the assay on tankyrase 1/2 is over 6.52.

`O=c1[nH]c(-c2ccc(C3CCNCC3)cc2)cn2cccc12` [Compound A75, 3-(4-piperidin-4-yl-phenyl)-2H-pyrrolo[1,2-a]pyrazin-1-one]: the pIC50 in assay [1] was over 6.52; against His-tagged Parp-1, 4.30 to 5.52. In the assay with tankyrase 1/2, the pEC50 is 5.52 to 6.52.

Consider `CC(C)(C)c1ccc(-c2cn3cc(F)cc3c(=O)[nH]2)cc1` [Compound A35, 3-(4-tert-butyl-phenyl)-7-fluoro-2H-pyrrolo[1,2-a]pyrazin-1-one], for which the pIC50 in assay [1] was over 6.52; against His-tagged Parp-1, 4.30 to 5.52. In the assay with tankyrase 1/2, the pEC50 is over 6.52.

Regarding `CC(C)(N)c1ccc(-c2cn3cc(F)cc3c(=O)[nH]2)cc1` [Compound A72, 3-[4-(1-amino-1-methyl-ethyl)-phenyl]-7-fluoro-2H-pyrrolo[1,2-a]pyrazin-1-one], the pIC50 (in assay [1]; at His-tagged Parp-1) was over 6.52 throughout. Moreover, the pEC50 with tankyrase 1/2 was 4.30 to 5.52.

For `Cn1cc(-c2ccc(-c3cn4cccc4c(=O)[nH]3)cc2)cn1` [Compound A25, 3-[4-(1-methyl-1H-pyrazol-4-yl)-phenyl]-2H-pyrrolo[1,2-a]pyrazin-1-one], the pIC50 in assay [1] was over 6.52; on His-tagged Parp-1 it was 4.30 to 5.52. Further, in the assay on tankyrase 1/2, the pEC50 is over 6.52.

Consider `CC(C)(F)c1ccc(-c2cn3cc(F)cc3c(=O)[nH]2)cc1` [Compound A63, 7-fluoro-3-[4-(1-fluoro-1-methyl-ethyl)-phenyl]-2H-pyrrolo[1,2-a]pyrazin-1-one], for which the pIC50 is over 6.52 in assay [1] and 5.52 to 6.52 against His-tagged Parp-1. Further, the pEC50 in the assay on tankyrase 1/2 is over 6.52.

Take `CC1(c2ccc(-c3cn4cc(F)cc4c(=O)[nH]3)cc2)CCCO1` (stereo not drawn) [Compound A73, 7-fluoro-3-[4-(2-methyl-tetrahydro-furan-2-yl)-phenyl]-2H-pyrrolo[1,2-a]pyrazin-1-one]: the pIC50 in assay [1] is over 6.52; against His-tagged Parp-1, 5.52 to 6.52. Also, the pEC50 with tankyrase 1/2 is over 6.52.

In the case of `Cc1cc2c(=O)[nH]c(-c3ccc(C(C)(C)O)cc3)cn2c1` [Compound A56, 3-[4-(1-hydroxy-1-methyl-ethyl)-phenyl]-7-methyl-2H-pyrrolo[1,2-a]pyrazin-1-one], the pIC50 in assay [1] is over 6.52; at His-tagged Parp-1, 5.52 to 6.52. Also, in the assay on tankyrase 1/2, the pEC50 is over 6.52.

As to `CN1CCC(c2ccc(-c3cn4cccc4c(=O)[nH]3)cc2)CC1` [Compound A79, 3-[4-(1-methyl-piperidin-4-yl)-phenyl]-2H-pyrrolo[1,2-a]pyrazin-1-one], the pIC50 in assay [1] was over 6.52; against His-tagged Parp-1, 4.30 to 5.52. In addition, the pEC50 in the assay with tankyrase 1/2 was 4.30 to 5.52.

In the case of `CC(C)(C)c1ccc(-c2cn3cccc3c(=O)[nH]2)cc1` [Compound A11, 3-(4-tert-butyl-phenyl)-2H-pyrrolo[1,2-a]pyrazin-1-one], the pIC50 in assay [1] is over 6.52; at His-tagged Parp-1, 4.30 to 5.52. In the assay on tankyrase 1/2, the pEC50 was over 6.52.

Usually pIC50 stands for −log10 of the IC50, conventionally taken in molar units.
